# Data published in US9211310B2, “Use of a Chinese medicine composition in preparing medicaments for treating secondary prevention of myocardial infarction” (TASLY PHARMACEUTICAL GROUP CO., LTD, priority 2010, dated 2015).
# System: patients after acute myocardial infarction
# Assay: Life quality, Seattle Angina Questionnaire (SAQ), same clinical trial
# Type: in vivo, human
# Conditions: Follow-up
# Source text: 3508 patients who were in accordance with the diagnostic standards of AMI for 28 days to 2 years and differentiated as Qi deficiency and blood stagnation syndrome by TCM were studied. 0.5 g Chinese medicine composition prepared by the method of EXAMPLE 1 (Coded as QSYQ) was administrated half an hour after meal, 3 times per day.
# There were 19 questions in the Seattle angina questionnaire (SAQ), including 5 parts: physical limitation (PL), anginal stability (AS), anginal frequency (AF), treatment satisfaction (TS) and disease perception (DP). After being given necessary explanation by doctors, the questions were answered independently by patients.
# They included the overall survival time, angina pectoris score, TCM symptom score and life quality score, where angina pectoris score, TCM symptom score and life quality score were evaluated at randomization, in 1st, 3rd, 6th, 9th, 12th month after treatment and 18th month after follow-up.
# All evaluation results of SAQ were described during the period of observation, and Wilcoxon rank sum test was used for inter-group comparison.
# The evaluation results in the SAQ were depicted in different observations, and inter-group comparison was tested by Wilcoxon Rank-sum test.
# [1] = FAS, second line headed Not limited (r60)
smiles,measurement,setting,value
"CC(=O)Oc1ccccc1C(=O)O [Control group, aspirine]","SAQ 7th question, Mostly satisfied: number of patients",FAS,908
same,"SAQ 7th question, Partly satisfied: % of patients",FAS,(6.68%)
same,"SAQ 7th question, Partly satisfied: number of patients",FAS,97
same,"SAQ Question 1-1 Mildly limited, number of patients",FAS,6
same,"SAQ Question 1-1 Mildly limited, percent of patients",FAS,(0.42%)
same,"SAQ Question 1-1 Moderately limited, number of patients",FAS,1
same,"SAQ Question 1-1 Moderately limited, percent of patients",FAS,(0.07%)
same,"SAQ Question 1-1 Not limited, number of patients",FAS,1386
same,"SAQ Question 1-1 Not limited, percent of patients",FAS,(95.98%)
same,"SAQ Question 1-1 Other reasons, number of patients",FAS,5
same,"SAQ Question 1-1 Other reasons, percent of patients",FAS,(0.35%)
same,"SAQ Question 1-1 Severely limited, number of patients",FAS,1
same,"SAQ Question 1-1 Severely limited, percent of patients",FAS,(0.07%)
same,"SAQ Question 1-1 Slightly limited, number of patients",FAS,45
same,"SAQ Question 1-1 Slightly limited, percent of patients",FAS,(3.12%)
same,"SAQ Question 1-2 Mildly limited, number of patients",FAS,8
same,"SAQ Question 1-2 Mildly limited, percent of patients",FAS,(0.55%)
same,"SAQ Question 1-2 Moderately limited, number of patients",FAS,0
same,"SAQ Question 1-2 Moderately limited, percent of patients",FAS,(0.00%)
same,"SAQ Question 1-2 Not limited, number of patients",FAS,1370
same,"SAQ Question 1-2 Not limited, percent of patients",FAS,(94.88%)
same,"SAQ Question 1-2 Severely limited, number of patients",FAS,2
same,"SAQ Question 1-2 Severely limited, percent of patients",FAS,(0.14%)
same,"SAQ Question 1-2 Slightly limited, number of patients",FAS,57
same,"SAQ Question 1-2 Slightly limited, percent of patients",FAS,(3.95%)
same,"SAQ Question 1-6: Mildly limited, patients (%)",FAS,(11.47%)
same,"SAQ Question 1-6: Moderately limited, patients (%)",FAS,(9.24%)
same,"SAQ Question 1-6: Not limited, patients (%)",FAS,(42.11%)
same,"SAQ Question 1-6: Other reasons, patients (%)",FAS,(0.83%)
same,"SAQ Question 1-6: Severely limited, patients (%)",FAS,(2.22%)
same,"SAQ Question 1-6: Slightly limited, patients (%)",FAS,(34.12%)
same,"SAQ Question 1-7: Mildly limited, patients (%)",FAS,(22.01%)
same,"SAQ Question 1-7: Moderately limited, patients (%)",FAS,(6.75%)
same,"SAQ Question 1-7: Not limited, patients (%)",FAS,(22.08%)
same,"SAQ Question 1-7: Other reasons, patients (%)",FAS,(2.53%)
same,"SAQ Question 1-7: Severely limited, patients (%)",FAS,(11.67%)
same,"SAQ Question 1-7: Slightly limited, patients (%)",FAS,(34.95%)
same,"SAQ Question 1-8: Mildly limited, patients (%)",FAS,(25.02%)
same,"SAQ Question 1-8: Moderately limited, patients (%)",FAS,(11.91%)
same,"SAQ Question 1-8: Not limited, patients (%)",FAS,(15.02%)
same,"SAQ Question 1-8: Other reasons, patients (%)",FAS,(3.19%)
same,"SAQ Question 1-8: Severely limited, patients (%)",FAS,(14.74%)
same,"SAQ Question 1-8: Slightly limited, patients (%)",FAS,(30.12%)
same,"SAQ Question 1-2 Not limited, number of patients",[1],7
same,"SAQ Question 1-2 Not limited, percent of patients",[1],(0.48%)
same,"SAQ 2nd question: Clearly increased, % of cases",FAS,(0.21%)
same,"SAQ 2nd question: Clearly increased, cases",FAS,3
same,"SAQ 2nd question: Clearly reduced, % of cases",FAS,(27.82%)
same,"SAQ 2nd question: Clearly reduced, cases",FAS,402
same,"SAQ 2nd question: Same, % of cases",FAS,(39.24%)
same,"SAQ 2nd question: Same, cases",FAS,567
same,"SAQ 2nd question: Slightly increased, % of cases",FAS,(7.40%)
same,"SAQ 2nd question: Slightly increased, cases",FAS,107
same,"SAQ 2nd question: Slightly reduced, % of cases",FAS,(25.33%)
same,"SAQ 2nd question: Slightly reduced, cases",FAS,366
same,"SAQ 3rd question: 1-2 times per week, % of cases",FAS,(25.33%)
same,"SAQ 3rd question: 1-2 times per week, cases",FAS,366
same,"SAQ 3rd question: 1-3 times per day, % of cases",FAS,(7.40%)
same,"SAQ 3rd question: 1-3 times per day, cases",FAS,107
same,"SAQ 3rd question: <1 time per week, % of cases",FAS,(27.82%)
same,"SAQ 3rd question: <1 time per week, cases",FAS,402
same,"SAQ 3rd question: No onset, % of cases",FAS,(0.00%)
same,"SAQ 3rd question: No onset, cases",FAS,0
same,"SAQ 3rd question: ≧3 times per week, % of cases",FAS,(39.24%)
same,"SAQ 3rd question: ≧3 times per week, cases",FAS,567
same,"SAQ 3rd question: ≧4 times per day, % of cases",FAS,(0.21%)
same,"SAQ 3rd question: ≧4 times per day, cases",FAS,3
same,"SAQ Question 1-3: Mildly limited, number of patients",FAS,30
same,"SAQ Question 1-3: Mildly limited, percent of patients",FAS,(2.08%)
same,"SAQ Question 1-3: Moderately limited, number of patients",FAS,6
same,"SAQ Question 1-3: Moderately limited, percent of patients",FAS,(0.42%)
same,"SAQ Question 1-3: Not limited, number of patients",FAS,1206
same,"SAQ Question 1-3: Not limited, percent of patients",FAS,(83.58%)
same,"SAQ Question 1-3: Other reasons, number of patients",FAS,9
same,"SAQ Question 1-3: Other reasons, percent of patients",FAS,(0.62%)
same,"SAQ Question 1-3: Severely limited, number of patients",FAS,2
same,"SAQ Question 1-3: Severely limited, percent of patients",FAS,(0.14%)
same,"SAQ Question 1-3: Slightly limited, number of patients",FAS,190
same,"SAQ Question 1-3: Slightly limited, percent of patients",FAS,(13.17%)
same,"SAQ Question 1-4: Mildly limited, number of patients",FAS,177
same,"SAQ Question 1-4: Mildly limited, percent of patients",FAS,(12.28%)
same,"SAQ Question 1-4: Moderately limited, number of patients",FAS,38
same,"SAQ Question 1-4: Moderately limited, percent of patients",FAS,(2.64%)
same,"SAQ Question 1-4: Not limited, number of patients",FAS,775
same,"SAQ Question 1-4: Not limited, percent of patients",FAS,(53.78%)
same,"SAQ Question 1-4: Other reasons, number of patients",FAS,10
same,"SAQ Question 1-4: Other reasons, percent of patients",FAS,(0.69%)
same,"SAQ Question 1-4: Severely limited, number of patients",FAS,5
same,"SAQ Question 1-4: Severely limited, percent of patients",FAS,(0.35%)
same,"SAQ Question 1-4: Slightly limited, number of patients",FAS,436
same,"SAQ Question 1-4: Slightly limited, percent of patients",FAS,(30.26%)
same,"SAQ Question 1-5: Mildly limited, number of patients",FAS,189
same,"SAQ Question 1-5: Mildly limited, percent of patients",FAS,(13.12%)
same,"SAQ Question 1-5: Moderately limited, number of patients",FAS,57
same,"SAQ Question 1-5: Moderately limited, percent of patients",FAS,(3.96%)
same,"SAQ Question 1-5: Not limited, number of patients",FAS,783
same,"SAQ Question 1-5: Not limited, percent of patients",FAS,(54.34%)
same,"SAQ Question 1-5: Other reasons, number of patients",FAS,8
same,"SAQ Question 1-5: Other reasons, percent of patients",FAS,(0.56%)
same,"SAQ Question 1-5: Severely limited, number of patients",FAS,9
same,"SAQ Question 1-5: Severely limited, percent of patients",FAS,(0.62%)
same,"SAQ Question 1-5: Slightly limited, number of patients",FAS,395
same,"SAQ Question 1-5: Slightly limited, percent of patients",FAS,(27.41%)
same,"SAQ Question 1-9: Mildly limited, % of cases",FAS,(20.40%)
same,"SAQ Question 1-9: Mildly limited, cases",FAS,285
same,"SAQ Question 1-9: Moderately limited, % of cases",FAS,(21.19%)
same,"SAQ Question 1-9: Moderately limited, cases",FAS,296
same,"SAQ Question 1-9: Not limited, % of cases",FAS,(6.08%)
same,"SAQ Question 1-9: Not limited, cases",FAS,85
same,"SAQ Question 1-9: Other reasons, % of cases",FAS,(4.65%)
same,"SAQ Question 1-9: Other reasons, cases",FAS,65
same,"SAQ Question 1-9: Severely-limited, % of cases",FAS,(27.13%)
same,"SAQ Question 1-9: Severely-limited, cases",FAS,379
same,"SAQ Question 1-9: Slightly limited, % of cases",FAS,(20.54%)
same,"SAQ Question 1-9: Slightly limited, cases",FAS,287
same,"SAQ 2nd question: Clearly increased, % of cases",PP,(0.21%)
same,"SAQ 2nd question: Clearly increased, cases",PP,3
same,"SAQ 2nd question: Clearly reduced, % of cases",PP,(27.66%)
same,"SAQ 2nd question: Clearly reduced, cases",PP,390
same,"SAQ 2nd question: Same, % of cases",PP,(39.15%)
same,"SAQ 2nd question: Same, cases",PP,552
same,"SAQ 2nd question: Slightly increased, % of cases",PP,(7.38%)
same,"SAQ 2nd question: Slightly increased, cases",PP,104
same,"SAQ 2nd question: Slightly reduced, % of cases",PP,(25.60%)
same,"SAQ 2nd question: Slightly reduced, cases",PP,361
same,"SAQ 3rd question: 1-2 times per week, % of cases",PP,(25.60%)
same,"SAQ 3rd question: 1-2 times per week, cases",PP,361
same,"SAQ 3rd question: 1-3 times per day, % of cases",PP,(7.38%)
same,"SAQ 3rd question: 1-3 times per day, cases",PP,104
same,"SAQ 3rd question: <1 time per week, % of cases",PP,(27.66%)
same,"SAQ 3rd question: <1 time per week, cases",PP,390
same,"SAQ 3rd question: No onset, % of cases",PP,(0.00%)
same,"SAQ 3rd question: No onset, cases",PP,0
same,"SAQ 3rd question: ≧3 times per week, % of cases",PP,(39.15%)
same,"SAQ 3rd question: ≧3 times per week, cases",PP,552
same,"SAQ 3rd question: ≧4 times per day, % of cases",PP,(0.21%)
same,"SAQ 3rd question: ≧4 times per day, cases",PP,3
same,"SAQ Question 1-3: Mildly limited, number of patients",PP,30
same,"SAQ Question 1-3: Mildly limited, percent of patients",PP,(2.13%)
same,"SAQ Question 1-3: Moderately limited, number of patients",PP,6
same,"SAQ Question 1-3: Moderately limited, percent of patients",PP,(0.43%)
same,"SAQ Question 1-3: Not limited, number of patients",PP,1179
same,"SAQ Question 1-3: Not limited, percent of patients",PP,(83.74%)
same,"SAQ Question 1-3: Other reasons, number of patients",PP,9
same,"SAQ Question 1-3: Other reasons, percent of patients",PP,(0.64%)
same,"SAQ Question 1-3: Severely limited, number of patients",PP,2
same,"SAQ Question 1-3: Severely limited, percent of patients",PP,(0.14%)
same,"SAQ Question 1-3: Slightly limited, number of patients",PP,182
same,"SAQ Question 1-3: Slightly limited, percent of patients",PP,(12.93%)
same,"SAQ Question 1-4: Mildly limited, number of patients",PP,172
same,"SAQ Question 1-4: Mildly limited, percent of patients",PP,(12.23%)
same,"SAQ Question 1-4: Moderately limited, number of patients",PP,37
same,"SAQ Question 1-4: Moderately limited, percent of patients",PP,(2.63%)
same,"SAQ Question 1-4: Not limited, number of patients",PP,754
